T/C data for 23 molecules are collected here from PubChem BioAssay AID248 (DTP/NCI, 2004).

“And” between values parts separate entries of the source, which are not always exact repeats. Identical values can stand only once. Inconclusive results and toxic doses are left out.

The assay has as its system L1210 leukemia ip in BDF1 mice, survival T/C. In words: NCI In Vivo Anticancer Drug Screen. Data for tumor model L1210 Leukemia (intraperitoneal) in B6D2F1 (BDF1) mice. The settings on record: endpoint: mean survival time, higher = longer survival. The procedure, abridged: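 Transplanted-tumor mice were given test agent; controls received vehicle only. Survival readings from the two groups were divided (treated over control).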

Setting [1] is: dose: 100.0 mg/kg/injection, schedule: Q04DX003 (ip), vehicle: acetone.
Where [2] appears, read: dose: 200.0 mg/kg/injection, schedule: Q04DX003 (ip), vehicle: acetone.
The mark [3] stands for this setting: dose: 400.0 mg/kg/injection, schedule: Q04DX003 (ip), vehicle: acetone.
Where [4] appears, read: dose: 50.0 mg/kg/injection, schedule: Q04DX003 (ip), vehicle: saline.
[5] abbreviates: dose: 100.0 mg/kg/injection, schedule: Q04DX003 (ip), vehicle: saline.
[6] abbreviates: dose: 100.0 mg/kg/injection, schedule: Q01DX001 (ip), vehicle: Klucel (hydroxypropylcellulose) (HPC).
[7] abbreviates: dose: 200.0 mg/kg/injection, schedule: Q01DX001 (ip), vehicle: Klucel (hydroxypropylcellulose) (HPC).
[8] abbreviates: dose: 400.0 mg/kg/injection, schedule: Q01DX001 (ip), vehicle: Klucel (hydroxypropylcellulose) (HPC).
Setting [9] is: dose: 50.0 mg/kg/injection, schedule: Q01DX009 (ip), vehicle: Klucel (hydroxypropylcellulose) (HPC).
[10] abbreviates: dose: 100.0 mg/kg/injection, schedule: Q01DX009 (ip), vehicle: Klucel (hydroxypropylcellulose) (HPC).
Setting [11] is: dose: 200.0 mg/kg/injection, schedule: Q01DX009 (ip), vehicle: Klucel (hydroxypropylcellulose) (HPC).
[12] abbreviates: dose: 100.0 mg/kg/injection, schedule: Q01DX009 (ip), vehicle: saline.
Where [13] appears, read: dose: 200.0 mg/kg/injection, schedule: Q01DX009 (ip), vehicle: saline.
Where [14] appears, read: dose: 100.0 mg/kg/injection, schedule: Q01DX001 (ip), vehicle: saline.
Where [15] appears, read: dose: 200.0 mg/kg/injection, schedule: Q01DX001 (ip), vehicle: saline.
[16] abbreviates: dose: 400.0 mg/kg/injection, schedule: Q01DX009 (ip), vehicle: Klucel (hydroxypropylcellulose) (HPC).

In the case of `CCCCCCCCN(CCCCCCCC)C(C)C(=O)c1ccc2cc(Br)c3ccccc3c2c1` (stereo not drawn), the T/C under setting [1] is 96 % of control, the T/C under setting [2] is 107 % of control and the T/C under setting [3] was 103 % of control.

On to `C[N+]1(CCCCCNC2=CC(=O)C(NCCCCC[N+]3(C)CCCCC3)=CC2=O)CCCCC1`, for which the T/C (dose: 0.1 mg/kg/injection, schedule: Q01DX001 (ip), vehicle: saline) is 96 % of control.

For `Cc1cc(=O)[nH]c(NCCCCCC(=O)O)n1`, the T/C runs as follows: (dose: 25.0 mg/kg/injection, schedule: Q04DX003 (ip), vehicle: saline) 104 % of control; under setting [4], 104 % of control; under setting [5], 101 % of control.

Regarding `Nc1nc(-c2ccc(O)cc2)nc2[nH]ncc12`, the T/C reads like this: under setting [6], 91 % of control; under setting [7], 100 % of control; under setting [8], 94 % of control.

`O=C1C=C(Nc2cccc(Cl)c2)C(=O)N1c1cccc(Cl)c1`: the T/C by setting is: (dose: 75.0 mg/kg/injection, schedule: Q04DX003 (ip), vehicle: other) 106 % of control; (dose: 150.0 mg/kg/injection, schedule: Q04DX003 (ip), vehicle: other) 91 % of control; (dose: 300.0 mg/kg/injection, schedule: Q04DX003 (ip), vehicle: other) 90 % of control.

As for `O=c1cc(C2CCCCC2)[nH]c(=S)[nH]1`, the T/C was 101 % of control (dose: 50.0 mg/kg/injection, schedule: Q01DX001 (ip), vehicle: carboxymethylcellulose (CMC)); 92 % of control (dose: 100.0 mg/kg/injection, schedule: Q01DX001 (ip), vehicle: carboxymethylcellulose (CMC)); 86 % of control (dose: 200.0 mg/kg/injection, schedule: Q01DX001 (ip), vehicle: carboxymethylcellulose (CMC)); 90 % of control (dose: 400.0 mg/kg/injection, schedule: Q01DX001 (ip), vehicle: carboxymethylcellulose (CMC)).

With `O=C(/C=C(\C(=O)c1ccccc1)c1ccccc1)c1ccc(Cl)cc1`, the T/C is, setting by setting: under setting [9], 103 % of control; (dose: 75.0 mg/kg/injection, schedule: Q01DX001 (ip), vehicle: Klucel (hydroxypropylcellulose) (HPC)) 100 % of control; under setting [10], 92 % of control; (dose: 150.0 mg/kg/injection, schedule: Q01DX001 (ip), vehicle: Klucel (hydroxypropylcellulose) (HPC)) 95 % of control; under setting [11], 94 % of control; (dose: 300.0 mg/kg/injection, schedule: Q01DX001 (ip), vehicle: Klucel (hydroxypropylcellulose) (HPC)) 108 % of control.

For the molecule `CC(=O)C(c1ccccc1)N(C)C(=O)c1ccccc1` (stereo not drawn), the T/C under setting [1] was 93 % of control, the T/C under setting [2] is 86 % of control and the T/C under setting [3] was 89 % of control.

As for `NC(=O)N/N=C1\CC2C=CCC12` (stereo not drawn), the T/C runs as follows: (dose: 100.0 mg/kg/injection, schedule: Q04DX003 (ip), vehicle: saline with Tween-80) 94 % of control; (dose: 200.0 mg/kg/injection, schedule: Q04DX003 (ip), vehicle: saline with Tween-80) 92 % of control; (dose: 400.0 mg/kg/injection, schedule: Q04DX003 (ip), vehicle: saline with Tween-80) 108 % of control.

For `O=C1OC(c2ccccc2)=NC1c1ccccc1` (stereo not drawn), the T/C by setting is: under setting [12], 95 % of control; (dose: 100.0 mg/kg/injection, schedule: Q04DX003 (ip), vehicle: carboxymethylcellulose (CMC)) 101 % of control; under setting [13], 97 % of control; (dose: 200.0 mg/kg/injection, schedule: Q04DX003 (ip), vehicle: carboxymethylcellulose (CMC)) 95 % of control; (dose: 400.0 mg/kg/injection, schedule: Q01DX009 (ip), vehicle: saline) 97 % of control; (dose: 400.0 mg/kg/injection, schedule: Q04DX003 (ip), vehicle: carboxymethylcellulose (CMC)) 97 % of control.

As for `O=C1C2CC3C(CC2C(=O)[N]1[Sn]([c]1ccccc1)([c]1ccccc1)[c]1ccccc1)C1(Cl)C(Cl)=C(Cl)C3(Cl)C1(Cl)Cl` (stereo not drawn), the T/C (dose: 10.0 mg/kg/injection, schedule: Q01DX001 (ip), vehicle: carboxymethylcellulose (CMC)) was 98 % of control; the T/C (dose: 20.0 mg/kg/injection, schedule: Q01DX001 (ip), vehicle: carboxymethylcellulose (CMC)) was 95 % of control; the T/C (dose: 40.0 mg/kg/injection, schedule: Q01DX001 (ip), vehicle: carboxymethylcellulose (CMC)) is 101 % of control; the T/C (dose: 80.0 mg/kg/injection, schedule: Q01DX001 (ip), vehicle: carboxymethylcellulose (CMC)) was 101 % of control.

On to `Cc1ccc(S(=O)(=O)N(C)c2cc(Cl)c(C(=O)O)cc2Cl)cc1`, for which the T/C runs as follows: under setting [1], 90 % of control; under setting [2], 93 % of control; under setting [3], 90 % of control.

As for `C=CCNc1ncnc2c1ncn2C1OC(CO)C(O)C1O` (stereo not drawn), the T/C was 100 % of control (dose: 9.5 mg/kg/injection, schedule: Q01DX001 (ip), vehicle: other); 97 % of control (dose: 19.0 mg/kg/injection, schedule: Q01DX001 (ip), vehicle: other); 104 % of control (dose: 33.0 mg/kg/injection, schedule: Q01DX009 (ip), vehicle: other); 94 % of control (dose: 38.0 mg/kg/injection, schedule: Q01DX001 (ip), vehicle: other); 166 % of control (dose: 112.0 mg/kg/injection, schedule: Q01DX009 (ip), vehicle: other).

`CSc1nc(C)c(C)c(=O)[nH]1`: the T/C by setting is: under setting [14], 104 % of control; under setting [15], 116 % of control; (dose: 400.0 mg/kg/injection, schedule: Q01DX001 (ip), vehicle: saline) 124 % of control.

`CCOc1ccc(NC(=O)N/N=C(\C)CC(C)C)cc1`: the T/C runs as follows: under setting [6], 93 % of control; under setting [10], 99 % of control and 102 % of control; (dose: 100.0 mg/kg/injection, schedule: Q04DX002 (ip), vehicle: Klucel (hydroxypropylcellulose) (HPC)) 95 % of control and 89 % of control; under setting [7], 89 % of control; under setting [11], 96 % of control and 101 % of control; (dose: 200.0 mg/kg/injection, schedule: Q04DX002 (ip), vehicle: Klucel (hydroxypropylcellulose) (HPC)) 103 % of control and 110 % of control. The T/C by setting is: under setting [8], 91 % of control; under setting [16], 95 % of control and 102 % of control; (dose: 400.0 mg/kg/injection, schedule: Q04DX002 (ip), vehicle: Klucel (hydroxypropylcellulose) (HPC)) 104 % of control and 92 % of control.

`Cc1cc([N+](=O)[O-])c(NCCOC(=O)c2ccccc2Cl)c([N+](=O)[O-])c1`: the T/C by setting is: under setting [10], 102 % of control; under setting [11], 103 % of control; under setting [16], 102 % of control.

In the case of `CC(=O)OCC1OC(Oc2ccccc2)C(OC(C)=O)C(OC(C)=O)C(OC(C)=O)C1OC(C)=O` (stereo not drawn), the T/C is 104 % of control under setting [9], 96 % of control under setting [10] and 96 % of control under setting [11].

For `CS(=O)(=O)OC[C@H](OS(=O)(=O)O)[C@H](COS(C)(=O)=O)OS(=O)(=O)O`, the T/C was 106 % of control (dose: 50.0 mg/kg/injection, schedule: Q01DX009 (ip), vehicle: saline); 89 % of control under setting [4]; 89 % of control under setting [14]; 95 % of control under setting [12]; 96 % of control under setting [5]; 95 % of control under setting [15]. Also, the T/C reads like this: under setting [13], 98 % of control; (dose: 200.0 mg/kg/injection, schedule: Q04DX003 (ip), vehicle: saline) 91 % of control.

Take `Cc1ccc(CNC(=O)C2CCCCC2C(=O)O)cc1` (stereo not drawn): the T/C is, setting by setting: under setting [10], 100 % of control; under setting [11], 96 % of control; under setting [16], 93 % of control.

Consider `C/C(CCCCCCCCC#N)=N/NC(N)=O`, for which the T/C is 103 % of control under setting [6], 106 % of control under setting [7] and 105 % of control under setting [8].

In the case of `O=Cc1cc2ccccc2cc1O`, the T/C was 91 % of control (dose: 50.0 mg/kg/injection, schedule: Q01DX009 (ip), vehicle: saline with Tween-80); 94 % of control (dose: 100.0 mg/kg/injection, schedule: Q01DX009 (ip), vehicle: saline with Tween-80); 97 % of control (dose: 200.0 mg/kg/injection, schedule: Q01DX009 (ip), vehicle: saline with Tween-80).

For `CCOC(=O)NN(C(=O)OCC)c1c(N)nc(N)[nH]c1=O`, the T/C by setting is: under setting [6], 92 % of control; under setting [7], 101 % of control; under setting [8], 92 % of control.

Consider `CCOC(=O)C(Cc1cc(C(C)(C)C)c(O)c(C(C)(C)C)c1)(NC=O)C(=O)OCC`, for which the T/C runs as follows: under setting [9], 103 % of control; under setting [10], 100 % of control; under setting [11], 96 % of control.
